Results: PubChem BioAssay (NCI)
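48-hour exposure; five concentrations; linearly interpolated endpoints. GI50 is the concentration that inhibits growth by half. TGI: concentration producing complete growth inhibition.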

Columns and labels:
Experiment in all cases: growth of human tumour cells (NCI), 48 h
UACC-62 melanoma = test system: UACC-62 melanoma
NCI-H23 lung = test system: NCI-H23 lung
OVCAR-5 ovarian = test system: OVCAR-5 ovarian
UACC-257 melanoma = test system: UACC-257 melanoma
HS 578T breast = test system: HS 578T breast
NCI-H460 lung = test system: NCI-H460 lung
CAKI-1 renal = test system: CAKI-1 renal
RPMI-8226 leukemia = test system: RPMI-8226 leukemia
HCC-2998 colon = test system: HCC-2998 colon
HCT-116 colon = test system: HCT-116 colon
OVCAR-4 ovarian = test system: OVCAR-4 ovarian
MOLT-4 leukemia = test system: MOLT-4 leukemia
RXF 393 renal = test system: RXF 393 renal
K-562 leukemia = test system: K-562 leukemia
UO-31 renal = test system: UO-31 renal
HCT-15 colon = test system: HCT-15 colon
SF-539 CNS = test system: SF-539 CNS
NCI-H226 lung = test system: NCI-H226 lung
SK-OV-3 ovarian = test system: SK-OV-3 ovarian
SF-268 CNS = test system: SF-268 CNS
SNB-19 CNS = test system: SNB-19 CNS
NCI-H522 lung = test system: NCI-H522 lung
MALME-3M melanoma = test system: MALME-3M melanoma
ACHN renal = test system: ACHN renal
NCI/ADR-RES ovarian = test system: NCI/ADR-RES ovarian
U251 CNS = test system: U251 CNS
KM12 colon = test system: KM12 colon
HOP-62 NSCLC = test system: HOP-62 NSCLC
786-0 renal = test system: 786-0 renal
SK-MEL-28 melanoma = test system: SK-MEL-28 melanoma
COLO 205 colon = test system: COLO 205 colon
BT-549 breast = test system: BT-549 breast
SK-MEL-2 melanoma = test system: SK-MEL-2 melanoma
MDA-MB-231 breast = test system: MDA-MB-231 breast
SK-MEL-5 melanoma = test system: SK-MEL-5 melanoma
IGROV1 ovarian = test system: IGROV1 ovarian
MDA-MB-435 = test system: MDA-MB-435
HT29 colon = test system: HT29 colon
HL-60(TB) leukemia = test system: HL-60(TB) leukemia
A498 renal = test system: A498 renal
SNB-75 CNS = test system: SNB-75 CNS
T-47D breast = test system: T-47D breast
LOX IMVI melanoma = test system: LOX IMVI melanoma
CCRF-CEM leukemia = test system: CCRF-CEM leukemia
OVCAR-8 ovarian = test system: OVCAR-8 ovarian
MCF7 breast = test system: MCF7 breast
A549 NSCLC = test system: A549 NSCLC
DU-145 prostate = test system: DU-145 prostate
M14 melanoma = test system: M14 melanoma
SR leukemia = test system: SR leukemia
SF-295 CNS = test system: SF-295 CNS
OVCAR-3 ovarian = test system: OVCAR-3 ovarian
PC-3 prostate = test system: PC-3 prostate
TK-10 renal = test system: TK-10 renal
SW-620 colon = test system: SW-620 colon
SN12C renal = test system: SN12C renal
HOP-92 NSCLC = test system: HOP-92 NSCLC

Structure (SMILES): C/C(=C1\SC(=NCc2cccs2)NC1=O)c1ccc2ncccc2c1
- GI50 (UACC-62 melanoma): > 19.3 µM
- TGI (UACC-62 melanoma): > 25 µM
- GI50 (NCI-H23 lung): 22.2 µM
- TGI (NCI-H23 lung): > 25 µM
- GI50 (OVCAR-5 ovarian): > 25 µM
- TGI (OVCAR-5 ovarian): > 25 µM
- GI50 (UACC-257 melanoma): > 25 µM
- TGI (UACC-257 melanoma): > 25 µM
- GI50 (HS 578T breast): 9.15 µM
- TGI (HS 578T breast): > 25 µM
- GI50 (NCI-H460 lung): 9.27 µM
- TGI (NCI-H460 lung): > 25 µM
- GI50 (CAKI-1 renal): 11.1 µM
- TGI (CAKI-1 renal): > 25 µM
- GI50 (RPMI-8226 leukemia): 13 µM
- TGI (RPMI-8226 leukemia): > 25 µM
- GI50 (HCC-2998 colon): > 25 µM
- TGI (HCC-2998 colon): > 25 µM
- GI50 (HCT-116 colon): 11 µM
- TGI (HCT-116 colon): > 25 µM
- GI50 (OVCAR-4 ovarian): 18.1 µM
- TGI (OVCAR-4 ovarian): > 25 µM
- GI50 (MOLT-4 leukemia): 9.56 µM
- TGI (MOLT-4 leukemia): > 25 µM
- GI50 (RXF 393 renal): > 25 µM
- TGI (RXF 393 renal): > 25 µM
- GI50 (K-562 leukemia): 8.71 µM
- TGI (K-562 leukemia): > 25 µM
- GI50 (UO-31 renal): 10.1 µM
- TGI (UO-31 renal): > 25 µM
- GI50 (HCT-15 colon): 10.9 µM
- TGI (HCT-15 colon): > 25 µM
- GI50 (SF-539 CNS): 9.5 µM
- TGI (SF-539 CNS): > 25 µM
- GI50 (NCI-H226 lung): 21.5 µM
- TGI (NCI-H226 lung): > 25 µM
- GI50 (SK-OV-3 ovarian): > 25 µM
- TGI (SK-OV-3 ovarian): > 25 µM
- GI50 (SF-268 CNS): 18 µM
- TGI (SF-268 CNS): > 25 µM
- GI50 (SNB-19 CNS): 13.6 µM
- TGI (SNB-19 CNS): > 25 µM
- GI50 (NCI-H522 lung): 8.56 µM
- TGI (NCI-H522 lung): > 25 µM
- GI50 (MALME-3M melanoma): > 25 µM
- TGI (MALME-3M melanoma): > 25 µM
- GI50 (ACHN renal): 18.7 µM
- TGI (ACHN renal): > 25 µM
- GI50 (NCI/ADR-RES ovarian): 20.1 µM
- TGI (NCI/ADR-RES ovarian): > 25 µM
- GI50 (U251 CNS): 11.7 µM
- TGI (U251 CNS): > 25 µM
- GI50 (KM12 colon): 13.1 µM
- TGI (KM12 colon): > 25 µM
- GI50 (HOP-62 NSCLC): 21.8 µM
- TGI (HOP-62 NSCLC): > 25 µM
- GI50 (786-0 renal): > 23.1 µM
- TGI (786-0 renal): > 25 µM
- GI50 (SK-MEL-28 melanoma): > 25 µM
- TGI (SK-MEL-28 melanoma): > 25 µM
- GI50 (COLO 205 colon): 12.4 µM
- TGI (COLO 205 colon): > 25 µM
- GI50 (BT-549 breast): > 25 µM
- TGI (BT-549 breast): > 25 µM
- GI50 (SK-MEL-2 melanoma): > 25 µM
- TGI (SK-MEL-2 melanoma): > 25 µM
- GI50 (MDA-MB-231 breast): 7.24 µM
- TGI (MDA-MB-231 breast): > 25 µM
- GI50 (SK-MEL-5 melanoma): 8.21 µM
- TGI (SK-MEL-5 melanoma): > 25 µM
- GI50 (IGROV1 ovarian): > 25 µM
- TGI (IGROV1 ovarian): > 25 µM
- GI50 (MDA-MB-435): 7.55 µM
- TGI (MDA-MB-435): > 25 µM
- GI50 (HT29 colon): 10.9 µM
- TGI (HT29 colon): > 25 µM
- GI50 (HL-60(TB) leukemia): 9.36 µM
- TGI (HL-60(TB) leukemia): > 25 µM
- GI50 (A498 renal): 13.5 µM
- TGI (A498 renal): > 25 µM
- GI50 (SNB-75 CNS): 3.93 µM
- TGI (SNB-75 CNS): > 23.3 µM
- GI50 (T-47D breast): 15.1 µM
- TGI (T-47D breast): > 25 µM
- GI50 (LOX IMVI melanoma): 13.8 µM
- TGI (LOX IMVI melanoma): > 25 µM
- GI50 (CCRF-CEM leukemia): 10.2 µM
- TGI (CCRF-CEM leukemia): > 25 µM
- GI50 (OVCAR-8 ovarian): 14.7 µM
- TGI (OVCAR-8 ovarian): > 25 µM
- GI50 (MCF7 breast): 11.7 µM
- TGI (MCF7 breast): > 25 µM
- GI50 (A549 NSCLC): 12.2 µM
- TGI (A549 NSCLC): > 25 µM
- GI50 (DU-145 prostate): > 25 µM
- TGI (DU-145 prostate): > 25 µM
- GI50 (M14 melanoma): 13.9 µM
- TGI (M14 melanoma): > 25 µM
- GI50 (SR leukemia): 7.06 µM
- TGI (SR leukemia): > 21.7 µM
- GI50 (SF-295 CNS): 11.4 µM
- TGI (SF-295 CNS): > 25 µM
- GI50 (OVCAR-3 ovarian): 18.1 µM
- TGI (OVCAR-3 ovarian): > 25 µM
- GI50 (PC-3 prostate): 12.7 µM
- TGI (PC-3 prostate): > 25 µM
- GI50 (TK-10 renal): > 25 µM
- TGI (TK-10 renal): > 25 µM
- GI50 (SW-620 colon): 10.1 µM
- TGI (SW-620 colon): > 25 µM
- GI50 (SN12C renal): 12.6 µM
- TGI (SN12C renal): > 25 µM
- GI50 (HOP-92 NSCLC): 7.08 µM
- TGI (HOP-92 NSCLC): > 25 µM
